Assay results reported in US9796700B2 (Celgene CAR LLC, priority 2013, dated 2017).

These compounds were tested against Erk1 (Homo sapiens (Human), UniProt P27361) (assay: Protein Mass Modification Assay (intact protein MALDI)).
Assay type: binding
Procedure: Protein Mass Modification Assay
Intact protein: Erk1 from Millipore (Cat. No. 14-439) was incubated for 60 min. at room temperature with a 10-fold excess of test compound to protein. 4 μL aliquots of the resulting mixture were diluted with 15 μL of 0.2% TFA prior to micro C4 ZipTipping directly onto the MALDI target using sinapinic acid as the desorption matrix (10 mg/ml in 0.1% TFA:Acetonitrile 50:50, v/v). The centroid mass of the target protein in the control sample was compared with the centroid mass of the target protein incubated with compound. A shift in the centroid mass of the treated protein compared to the untreated protein was divided by the molecular weight of the compound. This number corresponds to the percentage of modified protein after one hour incubation. Results from this assay are reported in Table A under the column “ERK1 Mass Mod (%).”

Sequence of Erk1 (P27361 whole entry, looked up): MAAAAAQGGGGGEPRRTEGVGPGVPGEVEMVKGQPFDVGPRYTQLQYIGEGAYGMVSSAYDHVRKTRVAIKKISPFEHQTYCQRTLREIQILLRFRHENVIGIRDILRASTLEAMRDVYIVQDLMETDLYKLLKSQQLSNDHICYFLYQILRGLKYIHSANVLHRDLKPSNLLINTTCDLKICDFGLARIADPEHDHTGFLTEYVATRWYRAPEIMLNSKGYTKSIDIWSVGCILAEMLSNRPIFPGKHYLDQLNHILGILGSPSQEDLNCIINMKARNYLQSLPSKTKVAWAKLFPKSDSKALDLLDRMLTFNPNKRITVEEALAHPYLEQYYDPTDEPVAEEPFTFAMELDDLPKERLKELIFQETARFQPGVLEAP

Compound | ERK1 Mass Mod (%)
C=CC(=O)Nc1ccccc1Nc1nc(NC2CCN(C(C)=O)CC2)ncc1Cl [Compound I-116, N-(2-((2-((1-acetylpiperidin-4-yl)amino)-5-chloropyrimidin-4-yl)amino)phenyl) acrylamide] | E (provided a mass modification of ≧70%)
C=CC(=O)Nc1cc(C)ccc1Nc1nc(Nc2cc(OCCOC)ncc2C)ncc1C(F)(F)F [Compound I-359, N-(2-((2-((2-(2-methoxyethoxy)-5-methylpyridin-4-yl)amino)-5-(trifluoromethyl)pyrimidin-4-yl)amino)-5-methylphenyl)acrylamide] | E (provided a mass modification of ≧70%)
C=CC(=O)Nc1ccccc1Nc1nc(Nc2cc(OC)ccc2C)ncc1C(F)(F)F [Compound I-340, N-(2-((2-((5-methoxy-2-methylphenyl)amino)-5-(trifluoromethyl)pyrimidin-4-yl)amino)phenyl)acrylamide] | E (provided a mass modification of ≧70%)
C#CC(=O)N[C@@H]1CCCC[C@H]1Nc1nc(N[C@H]2CCCN(C(=O)CO)C2)ncc1C(F)(F)F [Compound I-34, N-((1R,2R)-2-((2-(((S)-1-(2-Hydroxyacetyl)piperidin-3-yl)amino)-5-(trifluoromethyl)pyrimidin-4-yl)amino)cyclohexyl)propiolamide] | F (provided a mass modification of 31-69%)
C=CC(=O)Nc1cc(C)ccc1Nc1nc(Nc2cc(OC)nc(N3CCOCC3)c2)ncc1C(F)(F)F [Compound I-94, N-(2-((2-((2-Methoxy-6-morpholinopyridin-4-yl)amino)-5-(trifluoromethyl)pyrimidin-4-yl)amino)-5-methylphenyl)acrylamide] | F (provided a mass modification of 31-69%)
C=CC(=O)Nc1ccccc1Nc1nc(Nc2ccc(N3CCNCC3)cc2OC(F)F)ncc1Cl [Compound I-142, N-(2-((5-chloro-2-((2-(difluoromethoxy)-4-(piperazin-1-yl)phenyl)amino)pyrimidin-4-yl)amino)phenyl)acrylamide] | E (provided a mass modification of ≧70%)
C=CC(=O)Nc1ccccc1Nc1nc(Nc2cc(C(=O)NOC)ccc2OC)ncc1C(F)(F)F [Compound I-67, 3-((4-((2-Acrylamidophenyl)amino)-5-(trifluoromethyl)pyrimidin-2-yl)amino)-N,4-dimethoxybenzamide] | E (provided a mass modification of ≧70%)
C=CC(=O)Nc1ccccc1Nc1nc(Nc2cc(C(=O)NOC)ccc2C#N)ncc1Cl [Compound I-195, 3-((4-((2-acrylamidophenyl)amino)-5-chloropyrimidin-2-yl)amino)-4-cyano-N-methoxybenzamide] | E (provided a mass modification of ≧70%)
C=CC(=O)Nc1ccccc1Nc1nc(Nc2cc(C(=O)NCCO)c(F)cc2C)ncc1Cl [Compound I-232, 5-((4-((2-acrylamidophenyl)amino)-5-chloropyrimidin-2-yl)amino)-2-fluoro-N-(2-hydroxyethyl)-4-methylbenzamide] | E (provided a mass modification of ≧70%)
C=CC(=O)Nc1c(Nc2nc(Nc3cc(OC)ncc3C)ncc2C(F)(F)F)ccc(C)c1F [Compound I-367, N-(2-fluoro-6-((2-((2-methoxy-5-methylpyridin-4-yl)amino)-5-(trifluoromethyl)pyrimidin-4-yl)amino)-3-methylphenyl)acrylamide] | E (provided a mass modification of ≧70%)
C=CC(=O)Nc1ccccc1Nc1nc(Nc2ccc(N3CCOCC3)cc2OC)ncc1N [Compound I-144, N-(2-((5-amino-2-((2-methoxy-4-morpholinophenyl)amino)pyrimidin-4-yl)amino)phenyl) acrylamide] | F (provided a mass modification of 31-69%)
C=CC(=O)Nc1ccccc1Nc1nc(N[C@H]2CCCNC2)ncc1Cl [Compound I-126, (S)—N-(2-((5-chloro-2-(piperidin-3-ylamino)pyrimidin-4-yl)amino)phenyl) acrylamide] | E (provided a mass modification of ≧70%)
C=CC(=O)Nc1cc(C)ccc1Nc1nc(Nc2cc(C(=O)NC)c(F)cc2C)ncc1Cl [Compound I-233, 5-((4-((2-acrylamido-4-methylphenyl)amino)-5-chloropyrimidin-2-yl)amino)-2-fluoro-N,4-dimethylbenzamide] | E (provided a mass modification of ≧70%)
C=CC(=O)N[C@@H]1CCCC[C@H]1Nc1nc(Nc2cc(C(=O)NOC)ccc2C)ncc1C(N)=O (racemic) [Compound I-256, Rac-trans-4-((2-acrylamidocyclohexyl)amino)-2-((5-(methoxycarbamoyl)-2-methylphenyl)amino)pyrimidine-5-carboxamide] | G (proived a mass modification ≦30%)
C=CC(=O)Nc1ccccc1Nc1nc(NC2CCCCC2)ncc1Cl [Compound I-107, N-(2-((5-chloro-2-(cyclohexylamino)pyrimidin-4-yl)amino)phenyl) acrylamide] | E (provided a mass modification of ≧70%)
C=CC(=O)Nc1ccccc1Nc1nc(Nc2cc(C(N)=O)ccn2)ncc1C(F)(F)F [Compound I-83, 2-((4-((2-Acrylamidophenyl)amino)-5-(trifluoromethyl)pyrimidin-2-yl)amino)isonicotinamide] | E (provided a mass modification of ≧70%)
C=CC(=O)N[C@H]1CCCC[C@@H]1Nc1nc(N[C@H]2CCCN(C(=O)CO)C2)ncc1C(F)(F)F (racemic) [Compound I-27, Rac-N-(2-((2-(((R)-1-(2-hydroxyacetyl)piperidin-3-yl)amino)-5-(trifluoromethyl)pyrimidin-4-yl)amino)-trans-cyclohexyl)acrylamide] | F (provided a mass modification of 31-69%)
C=CC(=O)Nc1ccccc1Nc1nc(Nc2cc(C(=O)O)ccc2C)ncc1Cl [Compound I-225, 3-((4-((2-acrylamidophenyl)amino)-5-chloropyrimidin-2-yl)amino)-4-methylbenzoic acid] | F (provided a mass modification of 31-69%)
C=CC(=O)Nc1ccccc1Nc1nc(Nc2cc(C(=O)NOCCO)ccc2OC)ncc1Cl [Compound I-194, 3-((4-((2-acrylamidophenyl)amino)-5-chloropyrimidin-2-yl)amino)-N-(2-hydroxyethoxy)-4-methoxybenzamide] | E (provided a mass modification of ≧70%)
C=CC(=O)Nc1ccccc1Nc1nc(Nc2ccc(N(CCNC(=O)OC(C)(C)C)C(C)=O)cc2OC)ncc1Cl [Compound I-174, tert-butyl (2-(N-(4-((4-((2-acrylamidophenyl)amino)-5-chloropyrimidin-2-yl)amino)-3-methoxyphenyl)acetamido)ethyl)carbamate] | E (key: E: provided a mass modification of ≧70%; F: provided a mass modification of 31-69%; G: proived a mass modification ≦30%)
C=CC(=O)Nc1ccccc1Nc1nc(Nc2ccc3c(c2OC)CCCC(=O)N3CCCN2CCOCC2)ncc1Cl [Compound I-146, N-(2-((5-chloro-2-((6-methoxy-1-(3-morpholinopropyl)-2-oxo-2,3,4,5-tetrahydro-1H-benzo[b]azepin-7-yl)amino)pyrimidin-4-yl)amino)phenyl)acrylamide] | E (provided a mass modification of ≧70%)
C=CC(=O)N[C@@H]1CCCC[C@H]1Nc1nc(Nc2cc(C(=O)NOC)ccc2C)ncc1Cl (racemic) [Compound I-188, Rac-trans-3-((4-((2-acrylamidocyclohexyl)amino)-5-chloropyrimidin-2-yl)amino)-N-methoxy-4-methylbenzamide] | F (provided a mass modification of 31-69%)
C=CC(=O)Nc1cc(OC)ccc1Nc1nc(Nc2ccc(N3CCC[C@H]3C(N)=O)cc2C#N)ncc1Cl [Compound I-178, (S)-1-(4-((4-((2-acrylamido-4-methoxyphenyl)amino)-5-chloropyrimidin-2-yl)amino)-3-cyanophenyl)pyrrolidine-2-carboxamide] | E (provided a mass modification of ≧70%)
C=CC(=O)Nc1cc(C)ccc1Nc1nc(Nc2cc(P(C)(C)=O)ncc2C)ncc1C(F)(F)F [Compound I-343, N-(2-((2-((2-(dimethylphosphoryl)-5-methylpyridin-4-yl)amino)-5-(trifluoromethyl)pyrimidin-4-yl)amino)-5-methylphenyl)acrylamide] | F (provided a mass modification of 31-69%)
C=CC(=O)Nc1cc(C)ccc1Nc1nc(Nc2nc(OC)ncc2F)ncc1C(F)(F)F [Compound I-357, N-(2-((2-((5-fluoro-2-methoxypyrimidin-4-yl)amino)-5-(trifluoromethyl)pyrimidin-4-yl)amino)-5-methylphenyl)acrylamide] | E (provided a mass modification of ≧70%)
C=CC(=O)Nc1cc(OC)ccc1Nc1nc(Nc2ccc3c(c2)CC(=O)N3CC)ncc1Cl [Compound I-166, N-(2-((5-chloro-2-((1-ethyl-2-oxoindolin-5-yl)amino)pyrimidin-4-yl)amino)-5-methoxyphenyl)acrylamide] | E (provided a mass modification of ≧70%)
C=CC(=O)Nc1cc(C)ccc1Nc1nc(Nc2cc(OC)nc(N3CCN(CC)CC3)c2)ncc1C(F)(F)F [Compound I-89, N-(2-((2-((2-(4-Ethylpiperazin-1-yl)-6-methoxypyridin-4-yl)amino)-5-(trifluoromethyl)pyrimidin-4-yl)amino)-5-methylphenyl)acrylamide] | F (provided a mass modification of 31-69%)
